Tests used:
[1] = In vitro EDTA challenge study; type: physicochemical
Summary of the method: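 Each 89Zr-labeled complex incubated at 37 °C for up to 7 days with EDTA (10, 50 or 100 mM; pH 5 or 7) at 1:100, 1:500 and 1:1000 ligand/EDTA ratios, n=4. Intact fraction sampled from 30 min to 7 d by radio-TLC (0.1 M EDTA pH 5 mobile phase) and gamma counting.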

Biodistribution studies = type: in vivo, female NIH Swiss mice; conditions: mice
Summary of the method: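 Female NIH Swiss mice (6-8 wk, n=6) received 89Zr-labeled complex, 0.55 MBq (15 μCi)/mouse i.v. via tail vein; organs excised at 2, 4, 24, 48, 72 h, weighed and gamma-counted. %ID/g and %ID/organ derived against a weighed, counted standard; mean±SD, two-tailed unpaired t test.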

[2] = In vitro serum stability (radio-ITLC); type: in vitro ADME; conditions: 37 C, after 7 days
Summary of the method: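 89Zr-labeled complexes (70 μCi, 2.59 MBq) incubated in human serum at 37 °C for 7 days (n=4). Analyzed daily by radio-ITLC on ITLC-SA strips with 0.1 M EDTA (pH 5) mobile phase and gamma counting; SEC in PBS after 7 days.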

[3] = In vitro metal competition study; type: physicochemical; conditions: PBS pH 7.4, 37 C
Summary of the method: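 Each 89Zr-labeled complex (0.1 mM stock) in PBS, pH 7.4, was mixed with 1 mM solutions of Fe(III), Co(II), Zn(II), Cu(II), Mg(II), Ga(III) or Gd(III) salts. Mixtures were incubated at 37 °C for 7 days. 89Zr release was tracked by radio-TLC at 2 h, 1 d, 4 d and 7 d, in triplicate.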

[4] = intravenous, 72 h post-injection

CC(=O)N1CCCCCNC(=O)CCC(=O)N2CCCCCNC(=O)CCC(=O)N(CCCCCN)[O][89Zr+]([O]1)[O]2 [89Zr-DFO, reference compound]
% Intact of 89Zr-complexes ([1]; EDTA 100-fold, pH 5.0, 37 C, 30 min): 93.0 ± 0.7% | % Intact of 89Zr-complexes ([1]; EDTA 100-fold, pH 5.0, 37 C, 1 h): 85.5 ± 0.9% | % Intact of 89Zr-complexes ([1]; EDTA 100-fold, pH 5.0, 37 C, 3 h): 59.6 ± 0.8% | % Intact of 89Zr-complexes ([1]; EDTA 100-fold, pH 5.0, 37 C, 6 h): 29.4 ± 0.7% | % Intact of 89Zr-complexes ([1]; EDTA 100-fold, pH 5.0, 37 C, 1 d): 6.6 ± 0.3% | % Intact of 89Zr-complexes ([1]; EDTA 100-fold, pH 5.0, 37 C, 3 d): 5.4 ± 0.3% | % Intact of 89Zr-complexes ([1]; EDTA 100-fold, pH 5.0, 37 C, 5 d): 4.4 ± 0.2% | % Intact of 89Zr-complexes ([1]; EDTA 100-fold, pH 5.0, 37 C, 7 d): 3.6 ± 0.1% | % Intact of 89Zr-complexes ([1]; EDTA 100-fold, pH 7.0, 37 C, 30 min): 99.0 ± 0.4% | % Intact of 89Zr-complexes ([1]; EDTA 100-fold, pH 7.0, 37 C, 1 h): 96.6 ± 1.1% | % Intact of 89Zr-complexes ([1]; EDTA 100-fold, pH 7.0, 37 C, 3 h): 90.3 ± 0.8% | % Intact of 89Zr-complexes ([1]; EDTA 100-fold, pH 7.0, 37 C, 6 h): 89.4 ± 0.2% | % Intact of 89Zr-complexes ([1]; EDTA 100-fold, pH 7.0, 37 C, 1 d): 88.6 ± 0.2% | % Intact of 89Zr-complexes ([1]; EDTA 100-fold, pH 7.0, 37 C, 3 d): 87.2 ± 0.6% | % Intact of 89Zr-complexes ([1]; EDTA 100-fold, pH 7.0, 37 C, 5 d): 86.6 ± 0.3% | % Intact of 89Zr-complexes ([1]; EDTA 100-fold, pH 7.0, 37 C, 7 d): 83.9 ± 0.5% | % Intact of 89Zr-complexes ([1]; EDTA 500-fold, pH 5.0, 37 C, 30 min): 60.9 ± 1.0% | % Intact of 89Zr-complexes ([1]; EDTA 500-fold, pH 5.0, 37 C, 1 h): 33.9 ± 1.2% | % Intact of 89Zr-complexes ([1]; EDTA 500-fold, pH 5.0, 37 C, 3 h): 3.9 ± 0.4% | % Intact of 89Zr-complexes ([1]; EDTA 500-fold, pH 5.0, 37 C, 6 h): 0% | % Intact of 89Zr-complexes ([1]; EDTA 500-fold, pH 7.0, 37 C, 30 min): 90.3 ± 0.7% | % Intact of 89Zr-complexes ([1]; EDTA 500-fold, pH 7.0, 37 C, 1 h): 81.1 ± 1.1% | % Intact of 89Zr-complexes ([1]; EDTA 500-fold, pH 7.0, 37 C, 3 h): 58.6 ± 0.3% | % Intact of 89Zr-complexes ([1]; EDTA 500-fold, pH 7.0, 37 C, 6 h): 42.7 ± 1.2% | % Intact of 89Zr-complexes ([1]; EDTA 500-fold, pH 7.0, 37 C, 1 d): 36.2 ± 0.7% | % Intact of 89Zr-complexes ([1]; EDTA 500-fold, pH 7.0, 37 C, 3 d): 31.8 ± 1.1% | % Intact of 89Zr-complexes ([1]; EDTA 500-fold, pH 7.0, 37 C, 5 d): 30.4 ± 0.9% | % Intact of 89Zr-complexes ([1]; EDTA 500-fold, pH 7.0, 37 C, 7 d): 28.5 ± 0.4% | % Intact of 89Zr-complexes ([1]; EDTA 1000-fold, pH 5.0, 37 C, 30 min): 37.7 ± 1.1% | % Intact of 89Zr-complexes ([1]; EDTA 1000-fold, pH 5.0, 37 C, 1 h): 14.6 ± 0.7% | % Intact of 89Zr-complexes ([1]; EDTA 1000-fold, pH 5.0, 37 C, 3 h): 0% | % Intact of 89Zr-complexes ([1]; EDTA 1000-fold, pH 7.0, 37 C, 30 min): 85.6 ± 1.1% | % Intact of 89Zr-complexes ([1]; EDTA 1000-fold, pH 7.0, 37 C, 1 h): 68.3 ± 1.2% | % Intact of 89Zr-complexes ([1]; EDTA 1000-fold, pH 7.0, 37 C, 3 h): 45.4 ± 0.7% | % Intact of 89Zr-complexes ([1]; EDTA 1000-fold, pH 7.0, 37 C, 6 h): 32.9 ± 0.5% | % Intact of 89Zr-complexes ([1]; EDTA 1000-fold, pH 7.0, 37 C, 1 d): 28.1 ± 0.7% | % Intact of 89Zr-complexes ([1]; EDTA 1000-fold, pH 7.0, 37 C, 3 d): 24.5 ± 0.8% | % Intact of 89Zr-complexes ([1]; EDTA 1000-fold, pH 7.0, 37 C, 5 d): 21.4 ± 1.2% | % Intact of 89Zr-complexes ([1]; EDTA 1000-fold, pH 7.0, 37 C, 7 d): 20.3 ± 0.5% | Loss of metal ions in EDTA challenge ([1]; after 3 h incubation, 1000-fold excess of EDTA at pH 5): completely lost metal ions | Radioactivity in blood (Biodistribution studies; [4]): 0.0003 ± 0.0005 % ID per g | Radioactivity in bone (Biodistribution studies; [4]): 0.079 ± 0.014 % ID per g | Radioactivity in kidney (Biodistribution studies; [4]): 0.69 ± 0.098 % ID per g | Radioactivity in liver (Biodistribution studies; [4]): 0.066 ± 0.009 % ID per g | Radioactivity retention in bone tissue over time (Biodistribution studies; time points up to 72 h): increases over time | Radio-ITLC peak of complex in human serum [2]: 100% | % Intact of 89Zr-complexes ([3]; Co2+, 2 h): 99.2 ± 0.2% | % Intact of 89Zr-complexes ([3]; Co2+, 1 d): 98.3 ± 0.4% | % Intact of 89Zr-complexes ([3]; Co2+, 4 d): 98.1 ± 0.3% | % Intact of 89Zr-complexes ([3]; Co2+, 7 d): 95.4 ± 0.9% | % Intact of 89Zr-complexes ([3]; Cu2+, 2 h): 98.9 ± 0.5% | % Intact of 89Zr-complexes ([3]; Cu2+, 1 d): 98.6 ± 0.4% | % Intact of 89Zr-complexes ([3]; Cu2+, 4 d): 97.3 ± 0.7% | % Intact of 89Zr-complexes ([3]; Cu2+, 7 d): 96.0 ± 1.0% | % Intact of 89Zr-complexes ([3]; Fe3+, 2 h): 96.5 ± 0.2% | % Intact of 89Zr-complexes ([3]; Fe3+, 1 d): 76.1 ± 1.3% | % Intact of 89Zr-complexes ([3]; Fe3+, 4 d): 53.2 ± 3.8% | % Intact of 89Zr-complexes ([3]; Fe3+, 7 d): 33.9 ± 1.5% | % Intact of 89Zr-complexes ([3]; Fe3+, 7 d, listed as 89Zr–DFO): 33.9% | % Intact of 89Zr-complexes ([3]; Ga3+, 2 h): 99.3 ± 0.2% | % Intact of 89Zr-complexes ([3]; Ga3+, 1 d): 93.4 ± 2.6% | % Intact of 89Zr-complexes ([3]; Ga3+, 4 d): 81.1 ± 0.5% | % Intact of 89Zr-complexes ([3]; Ga3+, 7 d): 72.6 ± 1.3% | % Intact of 89Zr-complexes ([3]; Ga3+, 7 d, listed as 89Zr–DFO): 72.6% | % Intact of 89Zr-complexes ([3]; Gd3+, 2 h): 99.4 ± 0.3% | % Intact of 89Zr-complexes ([3]; Gd3+, 1 d): 98.8 ± 0.1% | % Intact of 89Zr-complexes ([3]; Gd3+, 4 d): 98.4 ± 0.3% | % Intact of 89Zr-complexes ([3]; Gd3+, 7 d): 96.8 ± 0.2% | % Intact of 89Zr-complexes ([3]; Mg2+, 2 h): 99.3 ± 0.1% | % Intact of 89Zr-complexes ([3]; Mg2+, 1 d): 98.6 ± 0.5% | % Intact of 89Zr-complexes ([3]; Mg2+, 4 d): 97.6 ± 0.8% | % Intact of 89Zr-complexes ([3]; Mg2+, 7 d): 96.8 ± 1.2% | % Intact of 89Zr-complexes ([3]; Zn2+, 2 h): 99.5 ± 0.1% | % Intact of 89Zr-complexes ([3]; Zn2+, 1 d): 98.8 ± 0.3% | % Intact of 89Zr-complexes ([3]; Zn2+, 4 d): 97.7 ± 0.6% | % Intact of 89Zr-complexes ([3]; Zn2+, 7 d): 95.9 ± 0.7%
